Data as given in article PMC5322802 (Biochemistry, 2016).
Where two headings read alike, the source gives them in different places.

Columns and labels:
[1] = biological target: FABP1; details: known Kd value, cited from earlier work
[2] = biological target: T1, FABP1 (Mus musculus, UniProt P12710); experiment: cis-parinaroyl-CoA displacement from FABP1; format: binding, murine; details: for fold weaker binding to FABP1 than OEA: cis-parinaroyl-CoA displacement Kis; for Ki: displacement of FABP1-bound cis-parinaroyl-CoA (footnote a), 24°C, mean ± SEM, n=5, ND = no significant displacement; for fold stronger binding by FABP1 as compared to FABP3, FABP5, and FABP7: different displacement assays
T1 sequence (P12710 1-127): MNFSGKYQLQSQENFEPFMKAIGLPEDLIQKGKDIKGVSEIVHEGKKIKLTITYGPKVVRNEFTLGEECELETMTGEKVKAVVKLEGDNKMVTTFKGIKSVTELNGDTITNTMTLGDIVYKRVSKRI

[3] = biological target: T1, FABP1; experiment: NBD-AEA displacement from FABP1; format: binding, murine; details: for displacement of / effect on FABP1-bound NBD-AEA (in words): FABP1 500nM, NBD-AEA 1μM
[4] = biological target: T2, ACBP (Mus musculus, UniProt P31786); experiment: Direct binding to ACBP: intrinsic Tyr/Trp fluorescence; design: species or system murine; details: ACBP 500nM
T2 sequence (P31786 1-87): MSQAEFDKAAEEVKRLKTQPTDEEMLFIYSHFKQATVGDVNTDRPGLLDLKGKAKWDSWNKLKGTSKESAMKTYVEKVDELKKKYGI

[5] = biological target: T3, SCP2 (Homo sapiens, UniProt P22307); experiment: Direct binding to SCP2: intrinsic Trp fluorescence
T3 sequence (P22307 21-143 isoform P22307-2 limits assumed): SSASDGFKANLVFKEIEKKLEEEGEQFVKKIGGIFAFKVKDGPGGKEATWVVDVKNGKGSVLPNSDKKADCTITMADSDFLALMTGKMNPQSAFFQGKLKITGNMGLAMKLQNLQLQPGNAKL

[6] = in vivo; cited from earlier work
[7] = test system: FABP4; details: cited from earlier work
[8] = biological target: T3, SCP2; experiment: NBD-stearic acid displacement from SCP2; format: binding; details: displacement of SCP2-bound NBD-stearic acid; SCP2 500nM, NBD-stearate 500nM
[9] = biological target: T1, FABP1; experiment: FABP1 binding of fluorescent ligands; design: species or system murine; details: read-out: Kd of FABP1 binding NBD-AEA; obtained herein (not shown)
[10] = biological target: T1, FABP1; experiment: NBD-stearic acid displacement from FABP1; format: binding, murine; details: not shown
[11] = biological target: T1, FABP1; experiment: ANS displacement from FABP1; format: binding, murine
[12] = biological target: T1, FABP1; experiment: Direct binding to FABP1: quenching of intrinsic Tyr fluorescence; design: species or system murine; details: FABP1 500nM, AEA 3μM
[13] = biological target: HSP70; details: read-out: Kd of HSP70 binding AEA; cited from earlier work
[14] = biological target: T1, FABP1; experiment: DAUDA displacement from FABP1; format: binding, murine; details: very high AEA concentration, e.g. 9 μM; not shown
[15] = FABP1 500nM, cis-parinaroyl-CoA 500nM

## CC/C=C/C=C\C=C/C=C/CCCCCCCC(=O)SCCNC(=O)CCNC(=O)[C@H](O)C(C)(C)COP(=O)(O)OP(=O)(O)OC[C@H]1O[C@@H](n2cnc3c(N)ncnc32)[C@H](O)[C@@H]1OP(=O)(O)O (relative stereo) [cis-parinaroyl-CoA]
[1]; read-out: Kd1 of FABP1 binding cis-parinaroyl-CoA
  Kd: 27 ± 4 nM
[1]; read-out: Kd2 of FABP1 binding cis-parinaroyl-CoA
  Kd: 66 ± 8 nM

## CC/C=C\C/C=C\C/C=C\C/C=C\C/C=C\CCCC(=O)NCCO [EPEA, n-3 eicosapentaenoylethanolamide]
[2]
  fold weaker binding to FABP1 than OEA: 4–10 fold
  Ki: 390 ± 30 nM

## CCCCC/C=C\C/C=C\C/C=C\C/C=C\CCCC(=O)OC(CO)CO [2-AG, 2-arachidonoylglycerol]
[2]
  fold stronger binding by FABP1 as compared to SCP2: ≥ 3 fold
  fold stronger binding by FABP1 as compared to FABP3, FABP5, and FABP7: 2–15 fold
[2]; [15]
  maximal displacement of FABP1-bound cis-parinaroyl-CoA: about 50%

## CCCC(C)(C)c1ccc2c(c1)OC(C)(C)[C@@H]1CC=C(C)C[C@@H]21 [JWH-133]
[3]; displacement of FABP1-bound NBD-AEA (footnote b), 24°C, mean ± SEM, n=5, ND = no significant displacement
  Ki: did not displace
[2]
  Ki: did not displace

## CCCCC/C=C\C/C=C\C/C=C\C/C=C\CCCC(=O)Nc1ccc(O)cc1C [VDM11]
[2]; [15]
  maximal displacement of FABP1-bound cis-parinaroyl-CoA: about 50%

## SR-144528
[3]
  displacement of / effect on FABP1-bound NBD-AEA (in words): increased the fluorescence

## CCCCCCCC/C=C\CCCCCCCC(=O)NCCO [OEA, oleoylethanolamide]
[4]
  quenching of ACBP aromatic amino acid (Tyr) fluorescence emission (in words): neither OEA nor AEA quenched
[5]
  Kd: 390 nM
[5]; SCP2 500nM, OEA 1.4 μM
  effect on SCP2 Trp fluorescence emission (in words): significantly increased

## CCCCC/C=C\C/C=C\C/C=C\C/C=C\CCCC(=O)O [ARA, arachidonic acid]
[6]
  first-pass clearance by liver: ~50%

## CCc1c(-c2ccccc2)c(-c2ccccc2)nn1-c1ccccc1-c1cccc(OCC(=O)O)c1 [BMS309403]
[7]
  affinity of FABP4 for BMS309403: < 2 nM
[8]
  Ki: 5500 ± 500 nM
[2]; BMS309403
  fold stronger binding by FABP1 than FABP3: 10 fold
  fold stronger binding by FABP1 than FABP5: 12–50 fold
[2]; [15]
  maximal displacement of FABP1-bound cis-parinaroyl-CoA (in words): almost completely

## CC/C=C\C/C=C\C/C=C\C/C=C\C/C=C\C/C=C\CCC(=O)NCCO [DHEA, n-3 docosahexaenoylethanolamide]
[2]
  fold weaker binding to FABP1 than OEA: 4–10 fold

## O=C(CCC/C=C\C/C=C\C/C=C\C/C=C\CCCCCNc1ccc([N+](=O)[O-])c2nonc12)NCCO [NBD-AEA]
[9]
  Kd: 700 ± 100 nM

## CCCCC/C=C\C/C=C\C/C=C\C/C=C\CCCC(=O)Nc1ccc(O)cc1 [AM404]
[2]; [15]
  maximal displacement of FABP1-bound cis-parinaroyl-CoA: about 50%

## CCCCC/C=C\C/C=C\C/C=C\C/C=C\CCCC(=O)NCCO [AEA, n-6 arachidonoylethanolamide]
[4]
  quenching of ACBP aromatic amino acid (Tyr) fluorescence emission (in words): neither OEA nor AEA quenched
[10]
  displacement of FABP1-bound NBD-stearic acid (in words): did not displace
[11]
  displacement of FABP1-bound ANS (in words): did not displace
[12]
  effect on FABP1 intrinsic Tyr fluorescence emission at 304 nm (in words): decreased
[13]
  Kd: 3700 ± 500 nM
[2]; [15]
  maximal displacement of FABP1-bound cis-parinaroyl-CoA: about 50%
[14]
  displacement of FABP1-bound DAUDA: 13%

## C=C(C)[C@@H]1CCC(C)=C[C@H]1c1c(O)cc(CCCCC)cc1O [Cannabidiol, cannabidiol]
[2]; [15]
  maximal displacement of FABP1-bound cis-parinaroyl-CoA: about 50%
[2]
  fold stronger binding by FABP1 as compared to FABP3, FABP5, and FABP7: 9–11 fold

## CCCCCCCC/C=C\CCCCCCCC(=O)SCCNC(=O)CCNC(=O)[C@H](O)C(C)(C)COP(=O)(O)OP(=O)(O)OC[C@H]1O[C@@H](n2cnc3c(N)ncnc32)[C@H](O)[C@@H]1OP(=O)(O)O [oleoyl-CoA]
[4]
  quenching of ACBP aromatic amino acid (Tyr) fluorescence emission (in words): significantly quenched

## CC(=O)Nc1ccc(Nc2nc(-c3ccc(Cl)c(Cl)c3)cs2)cc1 [SCPI1]
[8]
  Ki: 680 ± 60 nM

## CCCCCc1cc(O)c2c(c1)OC(C)(C)[C@@H]1CCC(C)=C[C@@H]21 [THC, Δ^9-tetrahydrocannabinol]
[3]
  displacement of / effect on FABP1-bound NBD-AEA (in words): essentially all
[2]; [15]
  maximal displacement of FABP1-bound cis-parinaroyl-CoA: about 50%
